Laboratory results published in the supplement of paper PMC6045584.
± gives the standard deviation of the averaged measurements.

Columns and labels:
GEFITINIB = compound: COc1cc2ncnc(Nc3ccc(F)c(Cl)c3)c2cc1OCCCN1CCOCC1 [GEFITINIB]; assay: surviving fraction relative to DMSO-only wells; higher = less growth inhibition; conditions: exposure time: 5 days
Procedure, shortened: (§1)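 Lines were retained only if, across three screens, replicate Pearson r was >0.7 and median Z' was >0.3. Viability was measured as CellTiter-Glo luminescence and reported as surviving fraction relative to the median of DMSO-only wells. Readings followed 10 minutes at room temperature, after log-phase tumour cells seeded at 250–500 per well in 384-well plates had been exposed, from 24 hours after seeding, continuously for five days to inhibitors at 0.5, 1, 5, 10, 50, 100, 500 and 1000 nM.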

[1] = compound: CC(=O)NCC(=O)N1[C@@H]2CC[C@H]1c1ccc(Nc3ncc(C(F)(F)F)c(NC4CCC4)n3)cc12; assay: as above; conditions: exposure time: 5 days
Procedure, shortened: as §1

Row | Test System | surviving fraction (GEFITINIB; 0.5 nM) | surviving fraction (GEFITINIB; 1 nM) | surviving fraction (GEFITINIB; 5 nM) | surviving fraction (GEFITINIB; 10 nM) | surviving fraction (GEFITINIB; 50 nM) | surviving fraction (GEFITINIB; 100 nM) | surviving fraction (GEFITINIB; 500 nM) | surviving fraction (GEFITINIB; 1000 nM) | surviving fraction ([1]; 0.5 nM) | surviving fraction ([1]; 1 nM) | surviving fraction ([1]; 5 nM) | surviving fraction ([1]; 10 nM) | surviving fraction ([1]; 50 nM) | surviving fraction ([1]; 100 nM) | surviving fraction ([1]; 500 nM) | surviving fraction ([1]; 1000 nM)
1 | KPD BONE | 0.994 ± 0.06 | 1.01 ± 0.04 | 0.84 ± 0.36 | 0.81 ± 0.34 | 1.06 ± 0.1 | 1.04 ± 0.076 | 0.952 ± 0.04 | 0.934 ± 0.029 | 0.977 ± 0.019 | 0.987 ± 0.026 | 0.991 ± 0.07 | 1.04 ± 0.093 | 0.903 ± 0.003 | 0.737 ± 0.033 | 0.346 ± 0.009 | 0.124 ± 0.0044
2 | HSSYII SYNOVIAL | 1.04 ± 0.026 | 0.9723 ± 0.0083 | 1.05 ± 0.022 | 1.03 ± 0.047 | 1.03 ± 0.017 | 1.03 ± 0.067 | 0.995 ± 0.051 | 0.98 ± 0.065 | 0.921 ± 0.035 | 0.8998 ± 0.0079 | 0.886 ± 0.044 | 0.851 ± 0.05 | 0.438 ± 0.017 | 0.222 ± 0.015 | 0.177 ± 0.015 | 0.185 ± 0.0066
3 | BT549 BREAST | 1.1 ± 0.18 | 1.03 ± 0.073 | 1.04 ± 0.13 | 0.946 ± 0.094 | 1.17 ± 0.14 | 1.21 ± 0.046 | 1.057 ± 0.007 | 1.11 ± 0.15 | 1.11 ± 0.058 | 1.09 ± 0.046 | 1.04 ± 0.12 | 1.05 ± 0.073 | 0.993 ± 0.1 | 0.494 ± 0.071 | 0.409 ± 0.071 | 0.237 ± 0.014
4 | SNU475 LIVER | 1.05 ± 0.096 | 1.05 ± 0.05 | 1.01 ± 0.016 | 1.03 ± 0.05 | 1.02 ± 0.045 | 0.979 ± 0.038 | 0.939 ± 0.021 | 0.898 ± 0.028 | 0.9533 ± 0.0031 | 0.962 ± 0.038 | 0.9607 ± 0.0076 | 0.899 ± 0.051 | 0.902 ± 0.035 | 0.804 ± 0.035 | 0.686 ± 0.079 | 0.529 ± 0.041
5 | MDAMB134 BREAST | 0.881 ± 0.014 | 0.974 ± 0.067 | 0.775 ± 0.21 | 0.873 ± 0.0099 | 1.2 ± 0.2 | 1.13 ± 0.023 | 1 ± 0.067 | 1.1 ± 0.064 | 0.998 ± 0.048 | 1.07 ± 0.37 | 1.01 ± 0.04 | 1.02 ± 0.11 | 0.992 ± 0.041 | 1.25 ± 0.18 | 1.13 ± 0.12 | 1.31 ± 0.1
6 | HOSMNG BONE | 1.01 ± 0.035 | 0.993 ± 0.0089 | 0.971 ± 0.092 | 1.03 ± 0.073 | 1.05 ± 0.085 | 1.14 ± 0.026 | 1.09 ± 0.091 | 1.07 ± 0.021 | 0.997 ± 0.028 | 1.01 ± 0.06 | 0.962 ± 0.033 | 0.989 ± 0.016 | 0.886 ± 0.088 | 0.874 ± 0.041 | 0.449 ± 0.019 | 0.392 ± 0.0087
7 | ZR751 BREAST | 1.22 ± 0.054 | 1 ± 0.1 | 1.13 ± 0.067 | 0.983 ± 0.046 | 0.901 ± 0.071 | 0.994 ± 0.035 | 0.734 ± 0.034 | 0.802 ± 0.12 | 0.874 ± 0.18 | 0.927 ± 0.062 | 0.923 ± 0.12 | 0.925 ± 0.04 | 0.774 ± 0.1 | 1.04 ± 0.094 | 0.815 ± 0.062 | 0.897 ± 0.038
8 | OS25HAL BONE | 1.04 ± 0.052 | 1.04 ± 0.041 | 1.06 ± 0.035 | 1.09 ± 0.066 | 1.09 ± 0.069 | 1.15 ± 0.019 | 1.08 ± 0.069 | 1.05 ± 0.029 | 0.962 ± 0.045 | 0.9613 ± 0.0038 | 0.97 ± 0.024 | 0.947 ± 0.015 | 0.796 ± 0.062 | 0.605 ± 0.092 | 0.428 ± 0.069 | 0.264 ± 0.029
9 | SUM159 BREAST | 1.1 ± 0.026 | 1.1 ± 0.034 | 1.09 ± 0.02 | 1.06 ± 0.025 | 1.08 ± 0.014 | 1.04 ± 0.031 | 1.03 ± 0.036 | 1.036 ± 0.0092 | 1.11 ± 0.22 | 1.08 ± 0.16 | 1.1 ± 0.21 | 1.07 ± 0.16 | 0.956 ± 0.085 | 0.72 ± 0.027 | 0.56 ± 0.014 | 0.436 ± 0.0095
10 | RDES SOFT TISSUE | 1.07 ± 0.13 | 1.06 ± 0.15 | 1.05 ± 0.058 | 1.17 ± 0.079 | 1.03 ± 0.26 | 1.22 ± 0.12 | 1.16 ± 0.19 | 1.2 ± 0.14 | 1.25 ± 0.15 | 1.26 ± 0.18 | 1.3 ± 0.047 | 1.3 ± 0.079 | 1.07 ± 0.17 | 0.245 ± 0.018 | 0.249 ± 0.025 | 0.195 ± 0.0049
11 | SCC90 HEADNECK | 1.15 ± 0.1 | 1.06 ± 0.15 | 1.03 ± 0.023 | 0.85 ± 0.051 | 0.804 ± 0.019 | 0.651 ± 0.057 | 0.474 ± 0.044 | 0.465 ± 0.054 | 0.769 ± 0.12 | 0.816 ± 0.048 | 0.936 ± 0.035 | 0.991 ± 0.089 | 0.66 ± 0.13 | 0.62 ± 0.084 | 0.665 ± 0.048 | 0.613 ± 0.017
